Patent US9119821B2, “Use of methionine sulfoximine to treat acute liver failure and other diseases caused by an inflammatory cytokine response” (priority 2010, dated 2015)
Where two headings read alike, the source gives them in different places.

What was measured:
[1] = tested on: CD1 mice treated with LPS/D-GalN; assay: Survival of mice with LPS/D-GalN induced acute liver failure; format: in vivo, mouse; conditions: 50 mg/kg IP three hours prior to LPS/D-GalN
From the text: Six to eight week old CD1 mice are obtained from Charles River. Animals were housed in Wayne State University or University of Padova, Vallisneri Interdepartmental Complex animal quarters until the time of the experiment. Food was withdrawn the night before the day of the experiment. All experiments were approved by the Animal Investigation Committee of Wayne State University or by the Authority of the University of Padova and authorized by the Italian Ministry of Health.
Animals were divided into two groups. Group one animals consisted of both male and female mice injected with LPS and D-GalN to induce hepatic failure. Survival was monitored post LPS/D-GalN administration and the time of injection was considered to be zero hour (t=0). Group two animals consisted of mice injected with MSO three hours prior to LPS and D-GalN administration. […] […] For analysis of the effect of MSO treatment on the cell death pathway activated by the Fas ligand, mice were pre-treated with MSO as described above, and at time zero were injected with Jo2 antibody ([…]).
Animals were monitored continuously post LPS/D-GalN or Jo2 administration. […] The time of death was recorded as hours after LPS/D-GalN injection. Fisher's exact test was used to determine two-tailed p values for the statistical between the treated and untreated groups.

glutamine synthetase = biological target: T1, glutamine synthetase (Mus musculus, UniProt P15105); assay: Glutamine synthetase activity in liver extracts of treated mice; format: in vivo
T1 construct: liver homogenates were prepared from liver tissue excised and immediately homogenized; from tissue; host or cells: mouse liver homogenate supernatant
Description: (§1) Tissue and plasma were collected from male mice, which were divided into two groups. One group was injected with saline three hours prior to LPS/D-GalN injections. The second group was given MSO three hours prior to being injected with LPS/D-GalN. Control mice (t=0) were treated with MSO or saline for 3 hours and then euthanized (not exposed to LPS/D-GalN). After LPS/D-GalN injection at time zero, tissue and plasma samples were collected at one-hour time intervals from 1 to 5 hours.
To analyze enzyme activities liver homogenates were prepared from liver tissue excised and immediately homogenized in ice-cold buffer consisting of 250 mM sucrose, 10 mM Tris and 0.1 mM EGTA with protease inhibitor cocktail (Sigma #P8340). The homogenized tissue was centrifuged at 2375×g for 5 min. The tissue supernatant fraction was frozen on dry ice and stored at −80° C.
Glutamine synthetase was assayed as described by Meister, A. Glutamine synthetase from mammalian tissues. […] The reaction with the substrates glutamine and hydroxylamine was stopped using ferric chloride stop solution (0.37 M FeCl3, 0.67 M HCl, 0.20 M TCA) and the colorimetric product formed—γ-glutamyl hydroxamate—was measured at 535 nm. The absorbance values were converted to activities by comparison to a standard curve of pure glutamyl hydroxamate (a generous gift from Arthur J. Cooper, Department of Biochemistry and Molecular Biology, New York Medical College).

STAT1 = conditions: liver homogenates, five hours after LPS/D-GalN
Description: (§2) Immunoblots of cleaved caspase-3 and phospho-STAT proteins: Liver homogenates were prepared from male mice five hours after IP administration of LPS/D-GalN. […] Glyceraldehyde-3-phosphate dehydrogenase (GAPDH—Chemicon, Milano, Italy) was used as a loading control).

STAT3 = conditions: liver homogenates; both LPS/D-GalN treated and untreated mice
Description: as §2

caspase-3 = conditions: mouse, in vivo
Description: as §2

IFN-γ = tested on: IFN-γ
From the text: (§3) FIG. 6A, FIG. 6B, and FIG. 6C illustrate ELISA quantitation cytokine levels in plasma from LPS/D-GalN treated mice. The time zero values show the levels of each cytokine in negative control mice, not treated with LPS/D-GalN but injected with either saline (n=7) or MSO (n=7) three hours prior to be killed. […] For each cytokine, open circles represent cytokine levels in plasma isolated from mice pretreated with saline, and open diamonds represent cytokine levels in plasma isolated from mice pretreated with MSO prior to LPS/D-GalN treatment. FIG. 6A illustrates TNF-α levels. FIG. 6B illustrates IFN-γ levels. FIG. 6C illustrates IL-6 levels; and
as §1
(§4) Plasma was obtained by transferring blood to plasma separator tubes containing lithium heparin (BD Microtainer tubes). Plasma samples were immediately frozen on dry ice and stored at −80° C.
(§5) TNF-α, IFN-γ, and IL-6 ELISA kits were obtained from eBioscience, and experiments were performed using the manufacturer's guidelines for 96-well plate experiments. One hundred microliters of plasma was used per well.

IL-6 = conditions: 3 hours after LPS/D-GalN; without MSO peak 401±14 at two hours
From the text: as §3, §1, §4, §5

TNF-α = tested on: TNF-α
From the text: as §3, §1, §4, §5

peritoneal macrophages = conditions: 9 mM MSO, over the time course of the macrophage experiments
Description: Macrophages coordinate the early phases of LPS-induced inflammatory response, through the synthesis of TNF-α and other cytokines. In vitro experiments were conducted to directly test if MSO inhibits TNF-α production on LPS-stimulated macrophages obtained from mouse peritoneum. Macrophages were triggered with LPS with or without MSO, wherein the MSO was added either three hours before, one hour after, or at the same time as LPS. Four hours after LPS addition, TNF-α in the culture supernatant was quantitated by ELISA, as described in Methods.

[2] = i.p. injection of 50 mg/kg

T1 sequence (P15105 2-373 limits assumed): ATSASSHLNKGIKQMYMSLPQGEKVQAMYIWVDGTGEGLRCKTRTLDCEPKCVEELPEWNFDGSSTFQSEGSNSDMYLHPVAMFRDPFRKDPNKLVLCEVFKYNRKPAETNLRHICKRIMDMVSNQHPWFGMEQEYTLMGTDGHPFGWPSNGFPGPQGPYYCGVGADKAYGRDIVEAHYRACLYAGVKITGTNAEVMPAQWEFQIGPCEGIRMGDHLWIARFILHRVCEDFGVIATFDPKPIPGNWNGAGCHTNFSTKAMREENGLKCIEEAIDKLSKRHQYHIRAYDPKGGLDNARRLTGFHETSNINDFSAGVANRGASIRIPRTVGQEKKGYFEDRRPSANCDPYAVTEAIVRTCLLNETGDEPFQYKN

## CS(=N)(=O)CC[C@H](N)C(=O)O (stereo partly drawn) [MSO, methionine sulfoximine]
[1]; female CD1 mice, n=14, without pretreatment 27%, p<0.005
  female survival: 81%
[1]; male CD1 mice, n=21, without pretreatment 19%, p<0.002
  male survival: 71%
Glutamine synthetase; liver extracts, 50 mg/kg IP three hours prior to LPS/D-GalN, all time points
  glutamine synthetase activity relative to animals pre-treated with saline: less than 10%
Glutamine synthetase; long term MSO treatment
  inhibition of glutamine synthetase in the liver: 90%
STAT1
  increase in STAT1 activation by LPS/D-GalN: eliminated
STAT3
  phosphorylated STAT3: decreased
caspase-3
  caspase-3 activation: completely prevented
IFN-γ; 1 hour after LPS/D-GalN, without MSO 0.84±0.25
  plasma IFN-γ level: 0.19 ± 0.05 pg/mL
IFN-γ; 4 hours after LPS/D-GalN, without MSO 41±11, p 0.01
  plasma IFN-γ level: 5.0 ± 3.0 pg/mL
IL-6
  plasma IL-6 level, peak, mean ± SEM: 325 ± 27 pg/mL
TNF-α; 1 to 5 hours after LPS/D-GalN
  plasma TNF-α level throughout the time course: < 200 pg/mL
TNF-α; 1 hour after LPS/D-GalN, saline pretreated 590±91, p<0.001
  plasma TNF-α level, peak, mean ± SEM: 112 ± 35 pg/mL
TNF-α; t=0, injected three hours previously, not exposed to LPS/D-GalN, n=7
  plasma TNF-α level in control mice: not detectable
Peritoneal macrophages
  effect on cell viability (trypan blue): no effect
[2]
  lowering of plasma glutamine concentrations: about 50%
